Assay results as given in ChEMBL document CHEMBL1141818, “Annonaceous acetogenins: recent progress” (J Nat Prod, 1999).
In brackets after ≈: the same amount, converted by molar mass.

Assays:
A549 = assay: Cytotoxicity against human A549 cells; type: functional; conditions: for EC50: Homo sapiens, A549, read-out: ED50 (the source's name)
PC-3 = assay: Cytotoxicity against human PC-3 cells; type: functional; conditions: for EC50: Homo sapiens, PC-3, read-out: ED50 (the source's name)
MIA PaCa-2 = assay: Cytotoxicity against human MIA PaCa2 cells; type: functional; conditions: for EC50: Homo sapiens, MIA PaCa-2, read-out: ED50 (the source's name)
A498 = assay: Cytotoxicity against human A-498 cells; type: functional; conditions: Homo sapiens, A498; read-out: ED50 (the source's name)
[1] = Toxicity in brine shrimp; type: organism-based; conditions: artemia, in vivo
HT-29 = assay: Cytotoxicity against human HT-29 cells; type: functional; conditions: for EC50: Homo sapiens, HT-29, read-out: ED50 (the source's name)
MCF7 = assay: Cytotoxicity against human MCF7 cells; type: functional; conditions: for EC50: Homo sapiens, MCF7, read-out: ED50 (the source's name)

SMILES | EC50 (A549) | EC50 (PC-3) | EC50 (MIA PaCa-2) | EC50 (A498) | LC50 [1] | EC50 (HT-29) | EC50 (MCF7) | ED50 (MIA PaCa-2) | ED50 (A549) | ED50 (MCF7) | ED50 (HT-29) | ED50 (PC-3)
CCCCCCCCCC[C@@H](O)[C@H]1CC[C@H]([C@H]2CC[C@H]([C@H](O)CCCC[C@H](O)CCCCC[C@@H](O)CC3=C[C@H](C)OC3=O)O2)O1 | 0.67 mg/L (≈ 1.05 µM) | 0.53 mg/L (≈ 0.83 µM) | > 1 mg/L | > 1 mg/L | 0.43 mg/L (≈ 0.673 µM) | 0.76 mg/L (≈ 1.19 µM) | 0.33 mg/L (≈ 0.516 µM) | – | – | – | – | –
CCCCCCCCCC[C@@H](O)[C@H]1CC[C@H]([C@H]2CC[C@H]([C@H](O)CCCCC[C@@H](O)CCCCC3CC(CC(C)=O)C(=O)O3)O2)O1 (some centres not stated) | 0.077 mg/L (≈ 0.121 µM) | 0.16 mg/L (≈ 0.25 µM) | – | 0.036 mg/L (≈ 0.0563 µM) | 0.35 mg/L (≈ 0.548 µM) | 1.4 mg/L (≈ 2.19 µM) | 0.0012 mg/L (≈ 0.00188 µM) | 1.7 ×10⁻⁴ ug/ml | – | – | – | –
CCCCCCCCCCCC[C@@H](O)[C@H]1CC[C@H]([C@H](O)CCCC(O)C(O)CCCCC[C@@H]2CC(CC(C)=O)C(=O)O2)O1 (some centres not stated) | < 0.01 mg/L | 1.3 mg/L (≈ 2.12 µM) | < 0.01 mg/L | 0.12 mg/L (≈ 0.196 µM) | 4.8 mg/L (≈ 7.83 µM) | < 0.01 mg/L | 0.61 mg/L (≈ 0.995 µM) | – | – | – | – | –
CCCCCCCCCCCC[C@@H](O)[C@H]1CC[C@H]([C@H](O)CCCCCC(O)CCCCCCC2=C[C@H](C)OC2=O)O1 (some centres not stated) | 3.9 mg/L (≈ 6.71 µM) | 2.7 mg/L (≈ 4.65 µM) | 2.9 mg/L (≈ 4.99 µM) | 2.2 mg/L (≈ 3.79 µM) | 8.9 mg/L (≈ 15.3 µM) | 1.7 mg/L (≈ 2.93 µM) | 2.2 mg/L (≈ 3.79 µM) | – | – | – | – | –
CCCCCCCCCC[C@@H](O)[C@H]1CC[C@H]([C@H](O)CC[C@H](O)[C@@H]2CC[C@@H](CCCCC[C@@H]3CC(CC(C)=O)C(=O)O3)O2)O1 (some centres not stated) | 0.21 mg/L (≈ 0.344 µM) | 0.0011 mg/L (≈ 0.0018 µM) | > 1 mg/L | 0.21 mg/L (≈ 0.344 µM) | 3.3 mg/L (≈ 5.4 µM) | > 1 mg/L | > 1 mg/L | – | – | – | – | –
CCCCCCCCCC/C=C\CC[C@@H](O)[C@H]1CC[C@H]([C@H](O)CCCCCC(=O)CCCC[C@@H]2CC(CC(C)=O)C(=O)O2)O1 (some centres not stated) | > 1 mg/L | 0.032 mg/L (≈ 0.0515 µM) | 0.22 mg/L (≈ 0.354 µM) | > 1 mg/L | 0.44 mg/L (≈ 0.709 µM) | > 1 mg/L | > 1 mg/L | – | – | – | – | –
CCCCCCCCCCCC[C@@H](O)[C@H]1CC[C@H]([C@H](O)CCCCCC[C@H](O)CCCCCCCC2=C[C@H](C)OC2=O)O1 | – | 0.17 mg/L (≈ 0.279 µM) | – | 0.15 mg/L (≈ 0.246 µM) | 0.13 mg/L (≈ 0.213 µM) | 0.14 mg/L (≈ 0.23 µM) | – | 1 ×10⁻⁵ ug/ml | 6.5 ×10⁻⁷ ug/ml | 5.8 ×10⁻⁷ ug/ml | – | –
CCCCCCCCCCCC[C@H](O)[C@@H]1CC[C@H]([C@H](O)CCCCCC(O)CCCCCCC2=C[C@H](C)OC2=O)O1 (some centres not stated) | 2 mg/L (≈ 3.44 µM) | 2.1 mg/L (≈ 3.62 µM) | 1.1 mg/L (≈ 1.89 µM) | 1.8 mg/L (≈ 3.1 µM) | 6.8 mg/L (≈ 11.7 µM) | 1.4 mg/L (≈ 2.41 µM) | 1.7 mg/L (≈ 2.93 µM) | – | – | – | – | –
CCCCCCCCCC[C@@H](O)[C@H]1CC[C@@H]([C@H]2CC[C@H]([C@H](O)CCCC[C@H](O)CCCCC[C@@H](O)CC3=C[C@H](C)OC3=O)O2)O1 | – | 0.38 mg/L (≈ 0.595 µM) | 0.2 mg/L (≈ 0.313 µM) | 0.01 mg/L (≈ 0.0157 µM) | – | 0.14 mg/L (≈ 0.219 µM) | – | – | 1 ×10⁻⁸ ug/ml | 1.9 ×10⁻⁸ ug/ml | – | –
CCCCCCCCCCCC[C@@H](O)[C@H]1CC[C@H]([C@H](O)CCCCC[C@@H](O)CCCCCC[C@@H]2CC(CC(C)=O)C(=O)O2)O1 (mixture of isomers) | 1.9 mg/L | 2.2 mg/L | 0.0045 mg/L | 1.5 mg/L | 2.7 mg/L | 1.4 mg/L | 1.7 mg/L | – | – | – | – | –
CCCCCCCCCCCC[C@@H](O)[C@H]1CC[C@H]([C@H](O)CCCCCC[C@H](O)CCCCC[C@@H]2CC(CC(C)=O)C(=O)O2)O1 (mixture of isomers) | 2.6 mg/L | 1 mg/L | 0.68 mg/L | 1.4 mg/L | 0.31 mg/L | 0.26 mg/L | 3.2 mg/L | – | – | – | – | –
CCCCCCCCCC[C@@H](O)[C@H]1CC[C@H]([C@H]2CC[C@H]([C@H](O)CCCCCC(=O)CCCC[C@@H]3CC(CC(C)=O)C(=O)O3)O2)O1 (mixture of isomers) | 0.0057 mg/L | 1.1 mg/L | 1.2 mg/L | 0.46 mg/L | 0.67 mg/L | 0.004 mg/L | 0.26 mg/L | – | – | – | – | –
CCCCCCCCCCCCCC[C@@H](O)[C@H]1CC[C@H]([C@H](O)CCCC[C@H](O)CCCCC[C@@H]2CC(CC(C)=O)C(=O)O2)O1 (mixture of isomers) | 0.014 mg/L | 0.057 mg/L | 0.074 mg/L | 0.12 mg/L | 0.04 mg/L | – | – | – | – | 7.6 ×10⁻⁴ ug/ml | 7.4 ×10⁻⁴ ug/ml | –
CCCCCCCCCCCC/C=C\CC[C@@H](O)[C@H]1CC[C@H]([C@H](O)CC[C@H](O)CCCCC[C@H]2CC(CC(C)=O)C(=O)O2)O1 (mixture of isomers) | 1.8 mg/L | 1.5 mg/L | 0.045 mg/L | 2.2 mg/L | < 0.3 mg/L | 2.9 mg/L | 3.7 mg/L | – | – | – | – | –
CCCCCCCCCC[C@H](O)[C@@H](O)CCCC[C@H]1CC[C@H]([C@H]2CC[C@H]([C@H](O)CCCCC[C@@H](O)CC3=C[C@H](C)OC3=O)O2)O1 (stereo in doubt; 21) [GLACIN B] | – | – | – | 2.6 mg/L (≈ 4.07 µM) | 0.27 mg/L (≈ 0.423 µM) | – | – | 1.5 ×10⁻² ug/ml | 1.3 µg/mL (≈ 2.03 µM) | 5.2 ×10⁻² ug/ml | 8.7 ×10⁻² ug/ml | 5.6 ×10⁻² ug/ml
CCCCCCCCCCCCCC/C=C\[C@@H](O)C[C@H](O)[C@@H]1CC[C@@H](CCCCC[C@@H](O)CC2=C[C@H](C)OC2=O)O1 [GONIOTRIONIN] | 0.0077 mg/L (≈ 0.0133 µM) | 0.36 mg/L (≈ 0.622 µM) | 0.0054 mg/L (≈ 0.00933 µM) | 0.002 mg/L (≈ 0.00345 µM) | – | 0.34 mg/L (≈ 0.587 µM) | – | – | – | 5.3 ×10⁻⁶ ug/ml | – | –
CCCCCCCCCCCC[C@H](O)[C@H]1CC[C@H]([C@H](O)CCCCCC(=O)CCCC[C@@H](O)CC2=C[C@H](C)OC2=O)O1 [MOSIN B] | 0.94 mg/L (≈ 1.58 µM) | > 1 mg/L | – | > 1 mg/L | – | > 1 mg/L | > 1 mg/L | 1.2 ×10⁻⁴ ug/ml | – | – | – | –
CCCCCCCCCCCC[C@H](O)[C@@H]1CC[C@H]([C@H](O)CCCCCC(=O)CCCC[C@@H](O)CC2=C[C@H](C)OC2=O)O1 [MOSIN C] | 0.6 mg/L (≈ 1.01 µM) | > 1 mg/L | – | > 1 mg/L | – | > 1 mg/L | > 1 mg/L | 1.2 ×10⁻⁴ ug/ml | – | – | – | –
CCCCCCCCCCCC[C@@H](O)[C@H]1CC[C@H]([C@H]2CCC[C@@H]([C@@H](O)CCCCCCC[C@@H](O)CC3=C[C@H](C)OC3=O)O2)O1 [MUCONIN] | 0.0045 mg/L (≈ 0.00722 µM) | 0.58 mg/L (≈ 0.931 µM) | – | 0.18 mg/L (≈ 0.289 µM) | – | 0.39 mg/L (≈ 0.626 µM) | – | 5.4 ×10⁻⁴ ug/ml | – | 2.4 ×10⁻⁴ ug/ml | – | –
CCCCCCCCCCCCCCCCC[C@@H](O)[C@H]1C[C@H](O)[C@H]([C@H]2CC[C@H]([C@H](O)CCCCCC3=C[C@H](C)OC3=O)O2)O1 [MUCOXIN] | 0.036 mg/L (≈ 0.0578 µM) | 0.31 mg/L (≈ 0.498 µM) | 0.33 mg/L (≈ 0.53 µM) | 0.84 mg/L (≈ 1.35 µM) | – | 0.61 mg/L (≈ 0.979 µM) | 0.0037 mg/L (≈ 0.00594 µM) | – | – | – | – | –
CCCCCCCCCCCC[C@@H](O)[C@H]1CC[C@@H]([C@@H]2CC[C@@H](CCCCCCC[C@@H](O)CC3=C[C@H](C)OC3=O)O2)O1 [ROLLIDECIN C] | 1.3 mg/L (≈ 2.25 µM) | 0.29 mg/L (≈ 0.501 µM) | 0.11 mg/L (≈ 0.19 µM) | 1.4 mg/L (≈ 2.42 µM) | – | 0.063 mg/L (≈ 0.109 µM) | 1.1 mg/L (≈ 1.9 µM) | – | – | – | – | –
CCCCCCCCCCCC[C@@H](O)[C@H]1CC[C@@H]([C@@H]2CC[C@@H](CCCCCCCCC[C@@H](O)CC3=C[C@H](C)OC3=O)O2)O1 [ROLLIDECIN D] | 5.9 mg/L (≈ 9.72 µM) | 1.9 mg/L (≈ 3.13 µM) | 1 mg/L (≈ 1.65 µM) | 4 mg/L (≈ 6.59 µM) | – | 5.4 mg/L (≈ 8.9 µM) | 5 mg/L (≈ 8.24 µM) | – | – | – | – | –
CCCCCCCCCCCC[C@H](O)[C@H]1CC[C@H]([C@H]2CC[C@H]([C@H](O)CCCCCCCC[C@@H](O)CC3=C[C@H](C)OC3=O)O2)O1 [SQUAMOTACIN] | – | – | – | – | – | – | – | – | – | – | – | 1 ×10⁻⁸ ug/ml
